Test results from patent publication US20040167112A1, “Use of estrogen receptor alpha modulators for the treatment of multiple sclerosis” (Wyeth, priority 2003, published 2004).
“Also recorded” adds a separate entry of the source.

Tests used:
[1] = system: experimental autoimmune encephalomyelitis (EAE); experiment: EAE induced by adoptive transfer of PLP-primed effector cells: clinical disease; type: in vivo, SJL mice; conditions: for onset, incidence and severity of disease (EAE): ovariectomized female SJL recipient mice, compounds daily s.c. or p.o. from 5-7 days before transfer, severity scale 0-6
[2] = system: experimental autoimmune encephalomyelitis (EAE), brain and spinal cord; experiment: Histological analysis of brains and spinal cords of EAE mice at peak disease; type: in vivo, SJL mice
Description: Histological Analysis. At peak disease (14 days PT), mice were euthanized with CO2. […] Brains were cut into three segments (roughly, anterior cerebrum, midbrain and cerebellum) and embedded as a single block. […] A standard H&E (hematoxylin and eosin) glass slide was prepared from each tissue block (brain and spinal cord) from each mouse submitted with two resulting H&E slides per mouse evaluated. Slides were evaluated and lesions seen were graded subjectively for presence (P=present) and/or severity. […] The location of findings, relative to the organ, was denoted as perivascular, periventricular, ependymal or meningeal, and also as focal (in small areas or not throughout the section), or diffuse (throughout the section examined). Focal was defined as very localized and not affecting every structure. Findings not defined as focal were diffuse or affecting every structure (e.g. all vessels). […] Typical murine models of EAE have scattered foci of slight to moderate-sized aggregates of leukocytes and rarely have diffuse infiltrates in the affected tissues.

[3] = system: PLP-primed effector cells (splenocytes); experiment: Cytokine production by PLP-primed effector cells upon antigen stimulation in vitro; type: cell-based, SJL mice; conditions: compound 1 μM, 5 μg/ml PLP, 3 days
Description: To examine in vitro the effect of compounds on cytokine production by PLP-primed effector cells, SJL mice were immunized with PLP emulsified in CFA. After 10 days, spleens were collected and single cell suspensions were made. After lysis of red blood cells, splenocytes were stimulated with 5 μg/ml PLP in the presence of compound for 3 days at 37° C., 5% CO2. Control samples were not stimulated and cultured in medium only (“medium”). Compounds were added at a final concentration of 1 μM. After the 3-day incubation, supernatants were collected and stored at −20° C. Cytokines (TNF-α, IFN-γ, IL-5, IL-4, IL-2) were measured in the supernatants using a Cytometric Bead Array kit.

[4] = system: PLP-primed effector T cells (splenocytes); experiment: Proliferation of effector T cells upon antigen (PLP) stimulation, CFSE flow cytometry; type: cell-based, SJL mice; conditions: compound 1 μM, 3 days
Description: Effect of compounds on proliferation of effector T cells upon antigen stimulation To examine the effect of proliferation of effector T cells in vitro in response to PLP stimulation, T-cell proliferation was examined by flow cytometry using the following assay. SJL mice were immunized with PLP emulsified in CFA. After 10 days, spleens were collected and single cell suspensions were made. After lysis of red blood cells, splenocytes were labeled with carboxy fluorescein succinimidyl ester (CFSE). CFSE-labeled cells were then incubated with PLP for 3 days at 37° C., 5% CO2. Compounds were added at a final concentration of 1 μM. To determine the percentage of CD4^+ cells that divided, the CFSE-labeled cells were stained with antibodies specific for the CD4 marker prior to flow cytometric analysis.

[5] = Table II, 14 days PT, grade 0-5
[6] = Table II, 14 days PT, grade 0 within normal limits to 5 severe
[7] = Table III (ER-selective agonists), 14 days PT
[8] = Table III (ER-selective agonists), 14 days PT, grade 0-5

SMILES | Brain Meningeal/Perivascular Leukocyte Infiltrates: number of brains with finding/total number evaluated ([2]; Table II, 14 days PT) | Spinal Cord Demyelination: number with finding/total number evaluated ([2]; Table II, 14 days PT) | Spinal Cord Meningeal/Perivascular Leukocyte Infiltrates: number with finding/total number evaluated ([2]; Table II, 14 days PT) | Spinal Cord Meningeal/Perivascular Leukocyte Infiltrates: average severity grade of lesions seen [2, 5] | Brain Meningeal/Perivascular Leukocyte Infiltrates: average severity grade of lesions seen [2, 6] | onset, incidence and severity of disease (EAE) [1] | Brain Meningeal/Perivascular Leukocyte Infiltrates: number of brains with finding/total number evaluated [2, 7] | Spinal Cord Demyelination: number with finding/total number evaluated [2, 7] | Spinal Cord Meningeal/Perivascular Leukocyte Infiltrates: number with finding/total number evaluated [2, 7] | Brain Meningeal/Perivascular Leukocyte Infiltrates: average severity grade of lesions seen [2, 8] | Spinal Cord Demyelination: average severity grade of lesions seen [2, 8] | Spinal Cord Meningeal/Perivascular Leukocyte Infiltrates: average severity grade of lesions seen [2, 8] | further results
Cc1c(-c2ccc(O)cc2)n(Cc2ccc(OCCN3CCCCC3)cc2)c2ccc(O)cc12.Cl.O [Compound A] | 3/5 | 0/5 | 1/5 | 1 | 2.7 |  |  |  |  |  |  |  | onset, incidence and severity of disease (EAE) ([1]; hydrochloride monohydrate): delay in onset as well as decreased incidence and severity of disease; also recorded: delayed onset of disease, as well as decreased incidence and severity; demyelination in spinal cords ([2]; SERM experiment): no demyelination was detected; amount of inflammatory cells infiltrating the spinal cords and brains ([2]; compared to mice from other treatment groups (text, SERM experiment)): reduction; pathology and leukocyte infiltration in the brains and spinal cords ([2]; conclusions): reduced pathology and leukocyte infiltration; IFN-γ production by effector T cells upon antigen stimulation [3]: suppressed; IL-4 production by effector T cells upon antigen stimulation [3]: concomitant increase; TNF-α production by effector T cells upon antigen stimulation [3]: inhibited; cytokine production by effector cells upon antigen stimulation [3]: decreased cytokine production; proliferation of CD4+ cells upon antigen stimulation [4]: suppressed; proliferation of CD4− cells upon antigen stimulation [4]: suppressed; proliferation of antigen-specific T cells [4]: decreased proliferation
C[C@]12CC[C@@H]3c4ccc(O)cc4CC[C@H]3[C@@H]1CC[C@@H]2O [Compound E2, 17β-estradiol] | 4/4 | ¾ | ¾ | 1.7 | 2.5 | delay in onset as well as decreased incidence and severity of disease | 3/4 | 1/4 | 2/4 | 1.7 | 1 | 1 | Spinal Cord Demyelination: average severity grade of lesions seen [2, 5]: 1.3; Distribution of Brain Lesions [2, 7]: Meningeal
C=Cc1cc(O)cc2nc(-c3ccc(O)c(F)c3)oc12 [ERβ-041] |  |  |  |  |  |  | 4/4 | 2/4 | 2/4 | 2.3 | 1.5 | 1.5 | 
C[C@]12CC[C@@H]3c4ccc(O)cc4C[C@@H](CCCCCCCCC[S+]([O-])CCCC(F)(F)C(F)(F)F)[C@H]3[C@@H]1CC[C@@H]2O (some centres unmarked) [ICI 182,780] |  |  |  |  |  |  |  |  |  |  |  |  | effect of ER antagonist on estrogen-mediated suppression of disease ([1]; mice treated with both E2 and ICI 182,780): abolished the effect of E2 on disease
CCCc1c(-c2ccc(O)cc2)nn(-c2ccc(O)cc2)c1-c1ccc(O)cc1 [PPT, propylpyrazole triol] |  |  |  |  |  |  |  | 0/4 | 0/4 | 1 |  |  | 
O=C(c1ccc(OCCN2CCCCC2)cc1)c1c(-c2ccc(O)cc2)sc2cc(O)ccc12 [Raloxifene, raloxifene] |  |  |  |  |  | delay in onset as well as decreased incidence and severity of disease; also recorded: delayed onset of disease, as well as decreased incidence and severity |  |  |  |  |  |  | 
